Several values for one entry are separate records, joined by “and”; a condition that tells them apart may be missing. Identical values can stand only once. Marks after values point to notes of the source that are not given here.
Tested on: green peach aphid, Myzus persicae (GPA)
Assay: Foliar spray test of Compound A, nonionic surfactant and AMS combinations on green peach aphid on cabbage
Type: in vivo
Settings: for T-Test Results (synergy mark): measured vs Colby, two-sided T-test; for % Control (negative values to 0) / Calculated Colby Value / Aphid count/plant: Rep 1-4
Protocol: Materials and Methods. Solutions of nonionic surfactant (Atlox 4991 0.125% and 0.25% V/V; 1250 and 2500 ppm respectively) and ammonium sulfate (“AMS” 10,200 and 20,400 ppm) were prepared in 500 mL of water. Water used to prepare all solutions was obtained from a Milli Q water purification system. Combination mixtures were created by adding surfactant to aliquots of AMS and water solution to create all two-way combinations of surfactant and AMS. A 500 ppm stock solution of Compound A in water was prepared by adding […] of Compound A to 40 mL of water. 62.4 μL of this 500 ppm solution was added to 20 mL of each AMS, surfactant, or surfactant and AMS solution to create 1.56 ppm Compound A high rate solutions. These high rate solutions of Compound A and surfactant, Compound A and AMS, or Compound A, AMS, and surfactant, were serially diluted in two-fold increments with the appropriate surfactant, AMS, or AMS and surfactant combination solutions, to create a dilution series from 1.56 to 0.19 ppm. A dilution series of Compound A in water with no surfactant or AMS was also prepared. All solutions of surfactant, AMS, or surfactant and AMS, were tested without Compound A. Two-to-three-leaf stage cabbage plants were infested on day 1 with green peach aphid, Myzus persicae (GPA), by transferring aphid infested foliage to each plant. A uniform number of aphids were transferred based on visual inspection of the infested foliage. Plants were sprayed on all surfaces to wet using a hand held aspirator type sprayer on day 2. Four replicates of each treatment combination were sprayed and all stages of live aphids on each plant were counted on day 4. Data were converted to percent control based on the number of aphids in the unsprayed check treatment. Counts of aphids on unsprayed check plants were used to calculate control for surfactant and AMS solutions. Additionally, the average aphid count on the unsprayed check treatment was used to calculate percent control values for plants sprayed with only Compound A. Aphid counts from plants treated with combinations of Compound A and AMS, surfactant, or AMS and surfactant, were converted to percent control by using the average aphid count from the unsprayed check treatment. Negative percent control values were changed to zero percent control values before assessing treatment combinations for synergy. […] Measured efficacy (percent Control) data were compared to calculated Colby values (Colby, S. R. 1967. Calculating Synergistic and Antagonistic Responses of Herbicide Combinations. Weeds 15:20-22) using a two-sided T-test (Minitab).

[1] = A 0.19 ppm + NS 1250 ppm + AMS 10,200 ppm
[2] = A 0.19 ppm + NS 1250 ppm + AMS 20,400 ppm
[3] = A 0.19 ppm + NS 2500 ppm + AMS 10,200 ppm
[4] = A 0.19 ppm + NS 2500 ppm + AMS 20,400 ppm
[5] = treatment #12: A 0.19 ppm + AMS 20,400 ppm
[6] = treatment #14: A 0.19 ppm + NS 1250 ppm + AMS 20,400 ppm
[7] = treatment #15: A 0.19 ppm + NS 2500 ppm + AMS 20,400 ppm
[8] = treatment #16: A 0.19 ppm + NS 1250 ppm + AMS 10,200 ppm

## CC(c1ccc(C(F)(F)F)nc1)S(C)(=O)=NC#N (stereo not drawn) [Compound A]
A 0.19 ppm + AMS 10,200 ppm
  % Control Colby Calculated, Mean: 43%
  % Control Measured, Mean: 32%
A 0.19 ppm + AMS 20,400 ppm
  % Control Colby Calculated, Mean: 55.58%
  % Control Measured, Mean: 38.3%
A 0.19 ppm + NS 1250 ppm
  % Control Colby Calculated, Mean: 58.28%
  % Control Measured, Mean: 76.4%
[1]
  % Control Colby Calculated, Mean: 58.28%
  % Control Measured, Mean: 93.28%
  T-Test Results (synergy mark): T = 6.60 P = 0.0027***
[2]
  % Control Colby Calculated, Mean: 60.1%
  % Control Measured, Mean: 91.1%
  T-Test Results (synergy mark): T = 3.26 P = 0.022***
A 0.19 ppm + NS 2500 ppm
  % Control Colby Calculated, Mean: 57%
  % Control Measured, Mean: 63.7%
[3]
  % Control Colby Calculated, Mean: 57%
  % Control Measured, Mean: 80%
[4]
  % Control Colby Calculated, Mean: 63.3%
  % Control Measured, Mean: 96.33%
  T-Test Results (synergy mark): T = 3.68 P = 0.035***
A 0.19 ppm combined with AMS and surfactant, three of 4 possible mixtures statistically supported
  synergy: significant synergy
A 0.19 ppm combined with surfactant or AMS (two-way mixtures), 0.05% level
  synergy: no instances where synergy could be supported
A at concentrations of 1.56, 0.78 and 0.39, not combined with surfactant or AMS
  efficacy: great enough that identifying synergy was not practical
Treatment #10: A 0.19 ppm + NS 1250 ppm
  % Control (negative values to 0): 85.4% and 98.1% and 64.3% and 57.9%
Treatment #10: A 0.19 ppm + NS 1250 ppm, predicted % control
  Calculated Colby Value: 53.6% and 63.2% and 60.2% and 56.1%
[5]
  Aphid count/plant: 19 and 24 and 20
  Calculated Colby Value: 56.5% and 64.4% and 43.9% and 57.5%
Treatment #13: A 0.19 ppm + AMS 10,200 ppm
  Aphid count/plant: 23 and 30 and 28 and 17
[6]
  % Control (negative values to 0): 97.9% and 98.1% and 100.0% and 68.4%
  Calculated Colby Value: 53.6% and 63.2% and 48.7% and 74.8%
[7]
  % Control (negative values to 0): 95.8% and 100.0% and 89.5%
  Calculated Colby Value: 60.2% and 63.2% and 43.9% and 85.8%
[8]
  % Control (negative values to 0): 97.9% and 96.3% and 100.0% and 78.9%
  Calculated Colby Value: 53.6% and 63.2% and 60.2% and 56.1%
Treatment #17: A 0.19 ppm + NS 2500 ppm + AMS 10,200 ppm
  % Control (negative values to 0): 72.9% and 98.1% and 85.7% and 63.2%

## N.N.O=S(=O)(O)O [AMS, ammonium sulfate]
Treatment #4: AMS 20,400 ppm alone
  Aphid count/plant: 35 and 36 and 38 and 31
Treatment #5: AMS 10,200 ppm alone
  % Control (negative values to 0): 0.0%

Source: patent US8232301B2, “Pesticidal compositions” (Dow AgroScience, LLC., priority 2008, dated 2012)
